Values after ≈ are worked out from the molar mass of the structure shown. Read-outs that look alike come from different tables or passages of the source.
Tests used:
Pks13-TE [1] = molecular target: T1, Pks13-TE (Mycobacterium tuberculosis, UniProt I6X8D2); assay: biochemical; assay type: binding
WT H37Rv = assay: microbe, parasite or virus in culture; assay type: cell-based, Mycobacterium tuberculosis; conditions: for MIC: Mycobacterium tuberculosis, H37RV
[2] = system: pks13-TetON +ATc (Pks13-hypermorph); assay type: cell-based, Mycobacterium tuberculosis
[3] = system: pks13-TetON -ATc (hypomorph); assay type: cell-based, Mycobacterium tuberculosis
Pks13-TE [4] = molecular target: T1, Pks13-TE; assay: biochemical
Mtb = conditions: in vivo; cited from earlier work
Mtb H37Rv = system: Mtb H37Rv; set-up: species or system Mycobacterium tuberculosis; conditions: in vivo, po, 25 mg/kg
[5] = read-out: MIC (whole cell activity)

T1 sequence (I6X8D2 1451-1733 limits assumed): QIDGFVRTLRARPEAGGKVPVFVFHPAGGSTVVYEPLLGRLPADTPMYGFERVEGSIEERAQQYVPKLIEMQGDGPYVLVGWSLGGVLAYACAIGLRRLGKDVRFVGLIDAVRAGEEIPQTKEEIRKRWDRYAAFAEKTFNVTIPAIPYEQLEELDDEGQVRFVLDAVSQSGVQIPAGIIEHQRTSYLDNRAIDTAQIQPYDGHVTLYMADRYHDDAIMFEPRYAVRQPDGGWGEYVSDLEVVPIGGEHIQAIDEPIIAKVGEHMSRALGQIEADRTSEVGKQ

SMILES	IC50 (Pks13-TE [1]; read-out: IC50) [µM]	MIC (WT H37Rv; read-out: WT H37Rv MIC) [µM]	Hypermorph MIC fold shift (+ATc/WT) [2] [fold]	MIC (WT H37Rv; read-out: WT H37Rv MIC (uM)) [µM]	Hypomorph MIC fold shift (WT/-ATc) [3] [fold]	other results
COc1ccc(OC)c(-n2ncc(-c3cn(CCc4ccc(C(=O)N(C)C)cc4)nn3)c2C)c1 [X21558]	> 20					
CNC(=O)c1cc(C)nc(N2CCC(C(=O)N3CCCN(C(=O)c4cnn5ccc(OC)cc45)CC3)CC2)n1 [X22280]	> 10	> 125				
Cn1ncc2cc(CCn3cc(-c4ccc(N5CC(F)(F)C5)nc4)nn3)ccc21 [X22317]	> 10	> 125				
Cc1cc(C(=O)NCc2ccccc2)nc(N2CCC(C(=O)N3CCN(C(=O)c4cnc5c(C)cccc5c4)CC3)CC2)n1 [X20377]			2.6	0.21 (≈ 0.124 µg/mL)	3.5	MIC (WT H37Rv; read-out: MIC (Mtb inhibition)): 0.21 µM (≈ 0.124 µg/mL); IC50 (Pks13-TE [1]; IC50 (uM)): 0.85 µM
COc1ccc(F)cc1-c1ccc(-c2cn(Cc3ccncc3)nn2)cn1 [X22307]	> 10					WT H37Rv MIC (WT H37Rv): > 125 µM
Cc1ccccc1-c1ncc(-c2cn(CCc3ccc(C(=O)N(C)C)cc3)nn2)s1 [X21546]				18 (≈ 7.52 µg/mL)	1.9	IC50 (Pks13-TE [1]; IC50 (uM)): 0.37 µM
CCC(C)(C)c1ccc(S(=O)(=O)N[C@@H](Cc2ccccc2)[C@@H](O)Cc2nc(N(C)C)no2)cc1 [X20348]				> 250		IC50 (Pks13-TE [1]; enzyme potency / IC50): 0.47 µM
COc1ccc(Cl)cc1-c1ccc(-c2cn(CCc3ccc(C(=O)N(C)C)cc3)nn2)cn1 [X21434]			5.4	1.1 (≈ 0.508 µg/mL)	2.4	IC50 (Pks13-TE [1]; IC50 (uM)): 0.46 µM
COc1ccc(OC)c(-c2ccc(-c3cn(C4CN(c5ccc6nn(C)cc6c5)C4)nn3)cn2)c1 [X23479]	0.46					
COc1ccc(Cl)c(-c2ccc(-c3cn(CCc4ccc(C(=O)N(C)C)cc4)nn3)cn2)c1 [X21464]			3.8	5.5 (≈ 2.54 µg/mL)	2.4	IC50 (Pks13-TE [1]; IC50 (uM)): 0.38 µM
Cc1cc(C(=O)NCc2ccccc2)nc(N2CC(C(=O)N3CCN(C(=O)c4ccc5nc(C)ccc5c4)CC3)C2)n1 [X22327]	0.56	1.3 (≈ 0.733 µg/mL)	3.6		3.1	
COCC1(CN(C)C(=O)c2ccc(CCn3cc(-c4ccc(-c5cc(OC)ccc5OC)nc4)nn3)cc2)CC1 [X20403]			2.3	0.05 (≈ 0.0271 µg/mL)	0.88	IC50 (Pks13-TE [4]): 0.057 µM; MIC (WT H37Rv; read-out: MIC (Mtb inhibition)): 0.05 µM (≈ 0.0271 µg/mL); IC50 (Pks13-TE [1]; IC50 in the TAMRA binding assay): 0.5 µM
Cc1cc(CNC(=O)c2cc(C)nc(N3CCC(C(=O)N4CCN(C(=O)c5ccc6nc(C)ccc6c5)CC4)CC3)n2)cc(C)n1 [X22277]	0.53	0.54 (≈ 0.335 µg/mL)	1.8		2.6	
Cn1ncc2cc(CCn3cc(-c4ccc(-c5cc(C(F)(F)F)ccc5F)nc4)nn3)ccc21 [X22311]	0.77	> 125				
COc1ccc(OC)c(-c2ccc(-c3cn(CCc4ccc(S(=O)(=O)N(C)C)cc4)nn3)cn2)c1 [X21545]	0.53	1.3 (≈ 0.642 µg/mL)	2.8		3.2	
COc1ccc(OC)c(-c2ccc(-c3cn(CCc4ccc5c(cnn5C)c4)nn3)cn2)c1 [X21543]	0.49	0.35 (≈ 0.154 µg/mL)	1.7		3.4	
Cc1cc(C(=O)NCc2ccccc2)nc(N2CCC(C(=O)N3CCN(C(=O)c4ccc5nc(C)sc5c4)CC3)CC2)n1 [X21408]	0.46		5.4		1.5	WT H37Rv MIC (WT H37Rv): 0.10 µM
Cn1ncc2cc(CCn3cc(-c4ccc(OCc5ccccc5)nc4)nn3)ccc21 [X22346]	> 10					WT H37Rv MIC (WT H37Rv): > 125 µM
COc1ccc(OC)c(-c2ccc(-c3cn(CCc4ccc(-c5nccn5C)cc4)nn3)cn2)c1 [X21542]	0.5	0.17 (≈ 0.0793 µg/mL)	2.7		1.9	
Cc1cc(C(=O)NCc2ccccc2)nc(N2CCC(CN3CCN(C(=O)c4cnc5c(C)cccc5c4)CC3)CC2)n1 [X21352]			6.1	5.2 (≈ 3 µg/mL)	1.7	IC50 (Pks13-TE [1]; IC50 (uM)): 0.46 µM
Cc1c(-c2cn(CCc3ccc(C(=O)N(C)C)cc3)nn2)cnn1-c1ccccc1F [X21774]	> 10	> 125				
COc1ccn2nc(C(=O)N3CCN(C(=O)C4CCN(c5nc(C)cc(C(F)(F)F)n5)CC4)CC3)cc2c1 [X22279]	> 10	> 125				
Cc1ccc(F)cc1-c1ccc(-c2cn(CCc3ccc4c(cnn4C)c3)nn2)cn1 [X22309]	0.62	> 125				

SMILES	IC50 (Pks13-TE [1]; read-out: IC50) [µM]	MIC (WT H37Rv; read-out: WT H37Rv MIC) [µM]	Hypermorph MIC fold shift (+ATc/WT) [2] [fold]	MIC (WT H37Rv; read-out: WT H37Rv MIC (uM)) [µM]	Hypomorph MIC fold shift (WT/-ATc) [3] [fold]	other results
COc1ccc(OC)c(-c2ncc(-c3cn(CCc4ccc(C(=O)N(C)C)cc4)nn3)cc2C)c1 [X21499]				18 (≈ 8.49 µg/mL)	1.6	IC50 (Pks13-TE [1]; IC50 (uM)): 0.58 µM
CN(C)C(=O)c1ccc(CCn2cc(-c3ccc(-c4ccccc4C(F)(F)F)nc3)nn2)cc1 [X21502]	0.59	> 125				
Cc1cccc2cc(C(=O)N3CCN(C(=O)C4CCN(c5nccc(C(=O)NCc6ccccc6)n5)CC4)CC3)cnc12 [X21424]			5.8	2.6 (≈ 1.5 µg/mL)	3.0	IC50 (Pks13-TE [1]; IC50 (uM)): 0.39 µM
Cc1cccc2cc(-c3cn(CCc4ccc(C(=O)N(C)C)cc4)nn3)cnc12 [X21497]	> 10					WT H37Rv MIC (WT H37Rv): > 125 µM
NNC(=O)c1ccncc1 [INH, Isoniazid, reference compound]						reduction of the burden (Mtb): 1 log10; reduction in CFU (lung) (Mtb H37Rv): ~1.5 log10
COc1ccc(OC)c(-c2ccc(-n3cc(C4CN(c5ccc(C(=O)N(C)C)cc5)C4)nn3)cn2)c1 [X23436]	0.37					
COc1ccc(OC)c(-c2ncc(-c3cn(CCc4ccc(C(=O)N(C)C)cc4)nn3)cn2)c1 [X21435]				> 125		IC50 (Pks13-TE [1]; IC50 (uM)): 0.58 µM
Cc1cc(C(=O)NCc2ccccc2)nc(N2CCC(C(=O)N3CCN(C(=O)c4ccc5nc(C)ccc5c4)CC3)CC2)n1 [X22275]	0.62	0.048 (≈ 0.0284 µg/mL)	2.7		2.3	
Cc1cccc(-c2ccc(-c3cn(CCc4ccc(C(=O)N(C)C)cc4)nn3)cn2)c1C [X21478]			17	12 (≈ 5.11 µg/mL)	1.9	IC50 (Pks13-TE [1]; IC50 (uM)): 0.47 µM
COc1ccn2nc(C(=O)N3CCN(C(=O)C4CCN(c5nc(C)cc(C(=O)N6CCCC6)n5)CC4)CC3)cc2c1 [X22276]	> 10	> 125				
CC(=O)N1CCN(C(=O)C2CCN(c3nc(C)cc(C(=O)NCc4ccccc4)n3)CC2)CC1 [X13045]				390 (≈ 181 µg/mL)	1.5	IC50 (Pks13-TE [4]): 15 µM; MIC (WT H37Rv; read-out: MIC (Mtb inhibition)): 390 µM (≈ 181 µg/mL); MIC (WT H37Rv; [5]): 390 µM (≈ 181 µg/mL); IC50 (Pks13-TE [1]; IC50 (uM)): 15.1 µM
Cc1cc(C(=O)NCc2ccncc2)nc(N2CCC(C(=O)N3CCN(C(=O)c4cnc5c(C)cccc5c4)CC3)CC2)n1 [X21429]			3.9	0.24 (≈ 0.142 µg/mL)	2.3	MIC (WT H37Rv; [5]): 0.24 µM (≈ 0.142 µg/mL); IC50 (Pks13-TE [1]; IC50 (uM)): 0.42 µM
COc1ccc(OC)c(-c2ccc(-c3nc(N(C)Cc4ccc(C(=O)N(C)C)cc4)no3)cn2)c1 [X21475]	> 20					
COc1ccc(OC)c(-c2ccc(-c3cn(CCc4ccc5nn(C)cc5c4)nn3)cn2)c1 [X21544]	0.55	0.47 (≈ 0.207 µg/mL)	1.5		2.7	
CNC(=O)c1cc(C(C)C)nc(N2CCC(C(=O)N3CCN(C(=O)c4ccc(-n5nc(C)cc5C)nc4)CC3)CC2)n1 [X21426]	0.62	13 (≈ 7.46 µg/mL)	4.8		1.5	
COc1ccc(OC)c(-c2ccc(-c3cn(CCc4ccncc4)nn3)cn2)c1 [X21498]	0.37		2.7		1.5	WT H37Rv MIC (WT H37Rv): 0.26 µM
Cc1cc(C(=O)NCc2ccccc2)nc(N2CCC(C(=O)N3CCN(C(=O)c4cc5c(Cl)cccn5n4)CC3)CC2)n1 [X22324]	0.53		3.7		3.3	WT H37Rv MIC (WT H37Rv): 0.22 µM
COc1ccc(OC)c(-c2ccc(-c3cn(C4CCN(c5ccc(C(=O)N(C)C)cc5)C4)nn3)cn2)c1 (centres unmarked) [X23546]	0.65					
COc1ccc2[nH]c(C(=O)N3CCN(C(=O)C4CCN(c5nc(C)cc(C(=O)NCc6ccccc6)n5)CC4)CC3)cc2c1OC [X20419]			2.5	0.044 (≈ 0.0275 µg/mL)	1.8	MIC (WT H37Rv; read-out: MIC (Mtb inhibition)): 0.04 µM (≈ 0.025 µg/mL); fold improvement in enzyme inhibition (Pks13-TE [1]): 30 fold; IC50 (Pks13-TE [1]; IC50 (uM)): 0.48 µM
COc1ccc(F)cc1-c1ccc(-c2cn(C3CN(c4ccc(C(=O)N(C)C)cc4)C3)nn2)cn1 [X23488]	0.62					
COc1ccn2nc(C(=O)N3CCN(C(=O)C4CCN(c5nc(C)cc(C(=O)NCc6ccccc6)n5)CC4)CC3)cc2c1 [X21411]			6.0	0.21 (≈ 0.125 µg/mL)	2.1	IC50 (Pks13-TE [1]; IC50 (uM)): 0.48 µM
Cc1cc(C(=O)NCc2ccccc2)nc(N2CCC(C(=O)N3CCN(C(=O)c4ccc(-n5nc(C)cc5C)nc4)CC3)CC2)n1 [X22239]	0.64	0.066 (≈ 0.041 µg/mL)	3.7		1.9	
